Patent EP3287436B1, “COMPOUNDS AND COMPOSITIONS FOR USE IN THE TREATMENT OF BCAT1-MEDIATED DISEASES” (Ergon Pharmaceuticals LLC, priority 2016, dated 2018)
Blank lines part the entries; values can stand above or below the compound they belong to.

How the values were obtained:
recombinant human BCAT1 = biological target: T1, recombinant human BCAT1 (Homo sapiens, UniProt P54687); assay: Inhibition of BCAT1 enzymatic activity (NADH consumption, coupled leucine dehydrogenase assay); assay type: biochemical; conditions: for remaining activity at 0.001 µM: compound concentration 1 nM; for remaining activity at 0.01 µM: compound concentration 10 nM; for remaining activity at 0.1 µM: compound concentration 100 nM; for IC50: inhibition of the enzymatic activity of BCAT1, range stated for compounds 2, 7 and 8 together
T1 construct: purchased Abcam
T1 sequence (P54687 1-386): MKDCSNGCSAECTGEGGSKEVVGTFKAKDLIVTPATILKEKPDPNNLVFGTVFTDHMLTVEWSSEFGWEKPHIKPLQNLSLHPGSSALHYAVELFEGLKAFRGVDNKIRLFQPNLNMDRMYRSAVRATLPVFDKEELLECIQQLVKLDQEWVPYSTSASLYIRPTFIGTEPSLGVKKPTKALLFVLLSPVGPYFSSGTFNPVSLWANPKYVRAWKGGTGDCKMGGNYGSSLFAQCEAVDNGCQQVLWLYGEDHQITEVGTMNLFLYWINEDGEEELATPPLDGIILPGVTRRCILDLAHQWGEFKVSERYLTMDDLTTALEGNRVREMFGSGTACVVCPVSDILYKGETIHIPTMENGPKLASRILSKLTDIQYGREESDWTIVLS
Method: Inhibition of BCAT1 enzymatic activity by compounds 2. 7 and 8. The ability of the compounds as disclosed herein to inhibit BCAT1 enzymatic activity was confirmed spectrophotometrically. In this experiment, 0.2 to 0.5 µg of recombinant human BCAT1 from Abcam was added to 95 µL of a reaction buffer containing […] 5'-phosphate (PLP), 50 mM ammonium sulfate, 0.05 mM NADH, 5mM DTT, 5mM a-ketoglutarate, 10 mM leucine, and 0.95 U leucine dehydrogenase (EMD Chemicals) and various concentrations of compounds 2, 7 and 8. Addition of BCAT1 to the reaction mixture led to the consumption of NADH, which was measured fluorometrically (ex:330-370 nm; em:450 nm). The rate of change of fluorescence was then estimated over of period of 10 min (10 cycles; 1 cycle/min). The assay was performed in triplicate in a 96-well plate. In Table 1, the results were expressed as % Control Enzymatic Activity, which is defined as the BCAT1 activity observed in the reaction mixture in the absence of an inhibitor. […]

[1] = tested on: TGF-β1-stimulated human fibroblasts; assay: Inhibition of collagen I production/secretion (ELISA of conditioned media); assay type: cell-based; conditions: for concentration at which collagen I secretion is completely inhibited: Table 2; for concentration at which collagen I secretion is inhibited: summary of Table 3; for factor of increase of the collagen inhibitory activity: relative to compound 7
Method: In vitro fibrosis is assessed by measuring collagen synthesis after treatment of fibroblast cells with a profibrotic stimuli such as TGF-β1 or bleomycin. Collagen secretion into the media can be quantified in conditioned media using an appropriate ELISA kit.
Confluent monolayers of human fibroblasts, plated onto duplicate 35 mm dishes, were pretreated with various concentrations of compounds 2, 6, and 7 for 30 min followed by stimulation of the cells with 7 ng/mL TGF-β1 for 48 hrs. At the end of the experiment, conditioned media were collected and assessed for the presence of secreted collagen I, whereas cells were collected and lysed. Collagen I secretion was quantified using an ELISA kit from R&D Systems per the manufacturer's instructions and expressed as arbitrary absorbance units per µg of cell lysate. In Table 2, results are shown as % Control Collagen Production, defined as the amount of collagen I secreted per µg of cell lysate from fibroblast cultures stimulated with TGF-β1 in the absence of an inhibitor. […]
Confluent monolayers of human fibroblasts, plated onto duplicate 35 mm dishes, were pretreated with various concentrations of compounds 28 and 29 and Control Collagen Production determined according to the protocol set out in Example 5. In Table 3, results are shown as % Control Collagen Production, defined as the amount of collagen I secreted per µg of cell lysate from fibroblast cultures stimulated with TGF-β1 in the absence of an inhibitor. […]

[2] = control = BCAT1 activity in the absence of an inhibitor
[3] = compound concentration 2 nM (as printed in Table 2), 30 min pretreatment, 7 ng/mL TGF-β1 for 48 hrs
[4] = compound concentration 5 nM (as printed in Table 2), 30 min pretreatment, 7 ng/mL TGF-β1 for 48 hrs
[5] = compound concentration 10 nM (as printed in Table 2), 30 min pretreatment, 7 ng/mL TGF-β1 for 48 hrs

SMILES: CC(=O)C(C)CC(Cc1ccccc1)C(=O)O (centres unmarked) [Compound 2, 2-benzyl-4-methyl-5-oxohexanoic acid]
remaining activity at 0.001 µM (recombinant human BCAT1; [2]): 86%
remaining activity at 0.01 µM (recombinant human BCAT1; [2]): 71%
remaining activity at 0.1 µM (recombinant human BCAT1; [2]): 28%
IC50 (recombinant human BCAT1): 0.5 to 50 nM
concentration at which collagen I secretion is completely inhibited [1]: 5 to 10 mM
% Control Collagen Production [1, 3]: 111%
% Control Collagen Production [1, 4]: 4%

SMILES: CC(CCC(=O)O)C(=O)c1ccccc1 (centres unmarked) [Compound 6, 4-methyl-5-oxo-5-phenylpentanoic acid]
concentration at which collagen I secretion is completely inhibited [1]: 5 to 10 mM
% Control Collagen Production [1, 3]: 105%
% Control Collagen Production [1, 4]: 77%
% Control Collagen Production [1, 5]: 2%

SMILES: O=C(O)CCC(C(=O)c1ccccc1)c1ccccc1 (centres unmarked) [Compound 28, 5-oxo-4,5-diphenylpentanoic acid]
% Control Collagen Production ([1]; compound concentration 1 mM (Table 3), protocol of Example 5): 121%
% Control Collagen Production ([1]; compound concentration 2 mM (Table 3), protocol of Example 5): 18%
% Control Collagen Production ([1]; compound concentration 5 mM (Table 3), protocol of Example 5): 0%
% Control Collagen Production ([1]; compound concentration 10 mM (Table 3), protocol of Example 5): 0%
factor of increase of the collagen inhibitory activity [1]: 2-5
concentration at which collagen I secretion is inhibited [1]: 2 mM

SMILES: O=C(O)CCC(C(=O)c1ccc(Br)cc1)c1ccccc1 (centres unmarked) [Compound 29, 5-(4-bromophenyl)-5-oxo-4-phenylpentanoic acid]
% Control Collagen Production ([1]; compound concentration 0.01 mM (Table 3), protocol of Example 5): 88%
% Control Collagen Production ([1]; compound concentration 0.05 mM (Table 3), protocol of Example 5): 71%
% Control Collagen Production ([1]; compound concentration 0.1 mM (Table 3), protocol of Example 5): 8%
factor of increase of the collagen inhibitory activity [1]: 100
concentration at which collagen I secretion is inhibited [1]: 0.1 mM

The next lines start with results.

remaining activity at 0.001 µM (recombinant human BCAT1; [2]): 67%
remaining activity at 0.01 µM (recombinant human BCAT1; [2]): 0%
remaining activity at 0.1 µM (recombinant human BCAT1; [2]): 0%
IC50 (recombinant human BCAT1): 0.5 to 50 nM
SMILES: CC(=O)C(CCC(=O)O)c1ccccc1 (centres unmarked) [Compound 7, 5-oxo-4-phenylhexanoic acid]
concentration at which collagen I secretion is completely inhibited [1]: 5 to 10 mM
% Control Collagen Production [1, 3]: 150%
% Control Collagen Production [1, 4]: 41%
% Control Collagen Production [1, 5]: 2%
concentration at which collagen I secretion is inhibited [1]: 5 to 10 mM

remaining activity at 0.0005 µM (recombinant human BCAT1; compound concentration 0.5 nM, control = BCAT1 activity in the absence of an inhibitor): 47%
remaining activity at 0.01 µM (recombinant human BCAT1; [2]): 23%
remaining activity at 0.1 µM (recombinant human BCAT1; [2]): 16%
IC50 (recombinant human BCAT1): 0.5 to 50 nM
SMILES: CC(=O)C(C)CC(CCC#N)C(=O)O (centres unmarked) [Compound 8, 2-(2-cyanoethyl)-4-methyl-5-oxohexanoic acid]
